Format in all cases: biochemical
The target in experiment [1] is T1, BTK-WT (Homo sapiens, UniProt Q06187).
T1 construct: purified from insect cells as a full-length construct containing an N-terminal 6X-His tag; His6 (N); made in house; host or cells: insect cells (baculovirus Sf21 in Method B)
The experiment can be described thus: Btk in vitro inhibitory activity (one of Method A TR-FRET, Method B electrophoretic mobility shift, Method C radiometric filter binding). As to conditions: read-out: BTK-WT (IC50). (A gel shift assay detects complexes by their altered migration in electrophoresis.)

Experiment [2] deals with T2, JAK3 (Homo sapiens, UniProt P52333).
T2 sequence (P52333 1-1124): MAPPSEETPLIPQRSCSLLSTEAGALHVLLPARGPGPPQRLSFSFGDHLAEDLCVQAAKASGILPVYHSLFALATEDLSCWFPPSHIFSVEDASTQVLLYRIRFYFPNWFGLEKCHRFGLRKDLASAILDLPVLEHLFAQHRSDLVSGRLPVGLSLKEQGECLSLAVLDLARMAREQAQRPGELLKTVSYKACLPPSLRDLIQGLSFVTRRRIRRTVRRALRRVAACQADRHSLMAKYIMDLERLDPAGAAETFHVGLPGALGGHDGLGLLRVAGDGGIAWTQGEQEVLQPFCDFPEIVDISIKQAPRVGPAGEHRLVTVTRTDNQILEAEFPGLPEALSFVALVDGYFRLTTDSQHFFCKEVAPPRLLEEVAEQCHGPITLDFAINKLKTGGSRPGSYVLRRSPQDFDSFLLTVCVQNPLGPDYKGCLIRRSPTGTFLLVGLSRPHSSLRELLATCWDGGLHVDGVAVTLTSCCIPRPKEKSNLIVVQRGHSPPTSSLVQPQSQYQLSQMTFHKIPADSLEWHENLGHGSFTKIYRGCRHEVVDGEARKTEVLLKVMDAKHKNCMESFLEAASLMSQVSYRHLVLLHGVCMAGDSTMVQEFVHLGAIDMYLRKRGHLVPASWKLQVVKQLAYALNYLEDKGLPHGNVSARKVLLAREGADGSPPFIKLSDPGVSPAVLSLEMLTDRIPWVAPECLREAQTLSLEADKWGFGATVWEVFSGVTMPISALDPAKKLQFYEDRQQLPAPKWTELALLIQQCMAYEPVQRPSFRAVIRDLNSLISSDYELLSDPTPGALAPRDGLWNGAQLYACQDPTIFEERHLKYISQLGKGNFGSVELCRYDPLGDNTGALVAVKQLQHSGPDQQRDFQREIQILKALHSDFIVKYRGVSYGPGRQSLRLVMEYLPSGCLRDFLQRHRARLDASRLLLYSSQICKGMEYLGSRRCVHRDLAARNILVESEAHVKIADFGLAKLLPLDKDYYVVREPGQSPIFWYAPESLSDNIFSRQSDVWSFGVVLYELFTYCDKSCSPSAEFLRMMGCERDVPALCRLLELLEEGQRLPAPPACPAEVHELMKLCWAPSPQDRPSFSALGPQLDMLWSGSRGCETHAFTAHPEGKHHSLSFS
The experiment can be described thus: Inhibition of a panel of kinases, in vitro HotSpot kinase assay: JAK3. As to conditions: 1 μM ATP, read-out: JAK3 (IC50).

For experiment [3], the target named is LCK (Homo sapiens, UniProt P06239). The experiment can be described thus: Inhibition of a panel of kinases, in vitro HotSpot kinase assay: LCK. As to conditions: 1 μM ATP, read-out: LCK (IC50).

Results on 19 compounds are retold here after patent US20210070748A1, “INHIBITORS OF BRUTONS TYROSINE KINASE” (Pharmacyclics LLC, priority 2015, published 2021).

Structures can show the parent of a compound that is named as a salt. Where two headings read alike, the source gives them in different places. Bounds are passed on as bounds.

T1 sequence (Q06187 whole entry): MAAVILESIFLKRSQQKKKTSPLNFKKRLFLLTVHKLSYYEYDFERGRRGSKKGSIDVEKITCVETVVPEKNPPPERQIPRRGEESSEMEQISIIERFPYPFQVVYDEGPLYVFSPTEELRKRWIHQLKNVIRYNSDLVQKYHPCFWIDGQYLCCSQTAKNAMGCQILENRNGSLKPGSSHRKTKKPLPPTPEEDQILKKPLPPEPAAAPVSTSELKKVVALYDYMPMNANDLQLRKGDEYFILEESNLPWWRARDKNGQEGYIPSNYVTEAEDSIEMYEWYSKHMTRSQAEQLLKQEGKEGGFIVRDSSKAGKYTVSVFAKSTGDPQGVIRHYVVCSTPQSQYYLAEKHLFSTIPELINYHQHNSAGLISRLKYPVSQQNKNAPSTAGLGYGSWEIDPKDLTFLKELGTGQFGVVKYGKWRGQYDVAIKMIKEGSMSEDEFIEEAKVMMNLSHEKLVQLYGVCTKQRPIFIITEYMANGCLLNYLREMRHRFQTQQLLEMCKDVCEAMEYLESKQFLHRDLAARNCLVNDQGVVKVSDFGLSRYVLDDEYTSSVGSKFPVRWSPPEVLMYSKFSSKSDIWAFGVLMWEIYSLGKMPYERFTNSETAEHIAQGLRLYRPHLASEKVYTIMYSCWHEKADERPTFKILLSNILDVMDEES
Sequence of LCK (P06239 whole entry): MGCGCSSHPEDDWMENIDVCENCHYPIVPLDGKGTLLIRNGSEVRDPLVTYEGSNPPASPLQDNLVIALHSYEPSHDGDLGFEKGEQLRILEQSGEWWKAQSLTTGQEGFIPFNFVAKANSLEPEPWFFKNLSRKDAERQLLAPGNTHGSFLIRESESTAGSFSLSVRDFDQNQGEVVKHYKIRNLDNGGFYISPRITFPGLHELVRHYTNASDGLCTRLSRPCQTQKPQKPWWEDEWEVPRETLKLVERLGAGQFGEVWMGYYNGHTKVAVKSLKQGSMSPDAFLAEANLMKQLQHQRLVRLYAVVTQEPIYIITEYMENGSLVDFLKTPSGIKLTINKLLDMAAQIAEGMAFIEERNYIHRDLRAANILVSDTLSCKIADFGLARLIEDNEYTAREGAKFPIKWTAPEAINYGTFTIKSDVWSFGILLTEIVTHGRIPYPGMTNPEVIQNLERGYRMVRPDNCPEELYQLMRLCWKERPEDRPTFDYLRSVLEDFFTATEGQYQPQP

`CN1CCN(C(=O)c2ccc(Nc3nc(N[C@H]4CC[C@H](NC(=O)c5ccc(C6CC6)cc5F)CC4)cnc3C(N)=O)cc2)CC1` [Example B-14, 5-((1r,4r)-4-(4-cyclo-propyl-2-fluoro-benzamido)cyclohexyl-amino)-3-(4-(4-methylpiperazine-1-carbonyl)phenylamino) pyrazine-2-carboxamide]: the IC50 in experiment [1] (Table 11, Formula B-I) is ≤ 0.1 µM; in experiment [2] (Table 11, Formula B-I), 0.1 to 1 µM; in experiment [3] (Table 11, Formula B-I) it was 0.1 to 1 µM.
For `C=CC(=O)N[C@@H]1CCCN(c2cnc(C(N)=O)c(Nc3ccc(C4CCN(C5CCCC5)CC4)cc3)n2)C1` [Example A-84, (R)-5-(3-acrylamidopiperidin-1-yl)-3-(4-(1-cyclopentylpiperidin-4-yl)phenylamino)pyrazine-2-carboxamide], the IC50 in experiment [1] (Table 10, Formula A-I) is ≤ 0.1 µM; in experiment [2] (Table 10, Formula A-I) it was < 0.1 µM; in experiment [3] (Table 10, Formula A-I), < 0.1 µM.
With `Cc1cc(Nc2cc(N3CCC[C@@H](NC(=O)N(C)C)C3)cnc2C(N)=O)sn1` [Example A-64, 5-[(3R)-3-[(dimethylcarbamoyl)amino]piperidin-1-yl]-3-[(3-methyl-1,2-thiazol-5-yl)amino]pyridine-2-carboxamide], the IC50 in experiment [1] (Table 10, Formula A-I) was 0.1 to 1 µM; in experiment [2] (Table 10, Formula A-I), 1 to 10 µM; in experiment [3] (Table 10, Formula A-I) it was > 10 µM.
With `Cc1cc(Nc2cc(N3CCC[C@@H](NC(=O)c4ccccc4)C3)cnc2C(N)=O)sn1` [Example A-61, 5-[(3R)-3-benzamidopiperidin-1-yl]-3-[(3-methyl-1,2-thiazol-5-yl)amino]pyridine-2-carboxamide], the IC50 in experiment [1] (Table 10, Formula A-I) fell in the range of 0.1 to 1 µM; in experiment [2] (Table 10, Formula A-I), 1 to 10 µM; in experiment [3] (Table 10, Formula A-I), 0.1 to 1 µM.
For `Cc1cc(Nc2nc(NC3CCC(NC(=O)c4ccc(N(C)C)cc4)CC3)cnc2C(N)=O)sn1` (stereo not drawn) [Example B-5, 5-({4-[4-(dimethylamino)benzamido]cyclohexyl}amino)-3-[(3-methyl-1,2-thiazol-5-yl)amino]pyrazine-2-carboxamide], the IC50 was ≤ 0.1 µM in experiment [1] (Table 11, Formula B-I); < 0.1 µM in experiment [2] (Table 11, Formula B-I); 0.1 to 1 µM in experiment [3] (Table 11, Formula B-I).
On to `Cc1cc(Nc2nc(N3CCC[C@@H](NC(=O)Nc4cccnc4)C3)cnc2C(N)=O)sn1` [Example A-11], for which the IC50 was ≤ 0.1 µM in experiment [1] (Table 10, Formula A-I); 1 to 10 µM in experiment [2] (Table 10, Formula A-I); 0.1 to 1 µM in experiment [3] (Table 10, Formula A-I).
As to `NC(=O)c1ncc(N2CCC[C@@H](NC(=O)c3ccccc3)C2)nc1Nc1ccc2ncccc2c1` [Example A-45, 5-[(3R)-3-benzamidopiperidin-1-yl]-3-[(quinolin-6-yl)amino]pyrazine-2-carboxamide], the IC50 in experiment [1] (Table 10, Formula A-I) is ≤ 0.1 µM; in experiment [2] (Table 10, Formula A-I) it was 1 to 10 µM; in experiment [3] (Table 10, Formula A-I), > 10 µM.
As for `Cc1cc(Nc2nc(N3CCC[C@@H](NC(=O)NC4CCCCC4)C3)cnc2C(N)=O)sn1` [Example A-13, 5-[(3R)-3-[(cyclohexylcarbamoyl)amino]piperidin-1-yl]-3-[(3-methyl-1,2-thiazol-5-yl)amino]pyrazine-2-carboxamide], the IC50 in experiment [1] (Table 10, Formula A-I) is ≤ 0.1 µM; in experiment [2] (Table 10, Formula A-I), 1 to 10 µM; in experiment [3] (Table 10, Formula A-I), 0.1 to 1 µM.
As to `CN(C(=O)N[C@@H]1CCCN(c2cnc(C(N)=O)c(Nc3ccc(C4CCN(C5CCCC5)CC4)cc3)n2)C1)c1ccccc1` [Example A-6, 3-{[4-(1-cyclopentylpiperidin-4-yl)phenyl]amino}-5-[(3R)-3-{[methyl(phenyl)carbamoyl]amino}piperidin-1-yl]pyrazine-2-carboxamide], the IC50 in experiment [1] (Table 10, Formula A-I) is ≤ 0.1 µM; in experiment [2] (Table 10, Formula A-I), 0.1 to 1 µM; in experiment [3] (Table 10, Formula A-I), 0.1 to 1 µM.
For the compound `Cc1cccc(C(=O)N[C@@H]2CCCN(c3cnc(C(N)=O)c(Nc4cc(C)ns4)n3)C2)c1` [Example A-33, 3-[(3-methyl-1,2-thiazol-5-yl)amino]-5-[(3R)-3-(3-methylbenzamido)piperidin-1-yl]pyrazine-2-carboxamide], the IC50 in experiment [1] (Table 10, Formula A-I) is ≤ 0.1 µM; in experiment [2] (Table 10, Formula A-I), 1 to 10 µM; in experiment [3] (Table 10, Formula A-I), 0.1 to 1 µM.
The matching figures for `Cc1cc(Nc2nc(N3CCC[C@@H](NC(=O)c4ccccc4F)C3)cnc2C(N)=O)sn1` [Example A-23, 5-[(3R)-3-(2-fluorobenzamido)piperidin-1-yl]-3-[(3-methyl-1,2-thiazol-5-yl)amino]pyrazine-2-carboxamide]: ≤ 0.1 µM, 0.1 to 1 µM and 0.1 to 1 µM.
On the same counts, the results for `Cc1cc(Nc2nc(N3CC[C@@H](NC(=O)N(C)C)C3)cnc2C(N)=O)sn1` [Example A-51, 5-[(3R)-3-[(dimethylcarbamoyl)amino]pyrrolidin-1-yl]-3-[(3-methyl-1,2-thiazol-5-yl)amino]pyrazine-2-carboxamide] are 1 to 10 µM, > 10 µM and > 10 µM.
For `Cc1cc(Nc2nc(N3CCC[C@@H](NC(=O)c4ccccc4)C3)cnc2C(N)=O)sn1` [Example A-19, 5-[(3R)-3-benzamidopiperidin-1-yl]-3-[(3-methyl-1,2-thiazol-5-yl)amino]pyrazine-2-carboxamide], the IC50 was ≤ 0.1 µM in experiment [1] (Table 10, Formula A-I); 0.1 to 1 µM in experiment [2] (Table 10, Formula A-I); 0.1 to 1 µM in experiment [3] (Table 10, Formula A-I).
Take `Cc1ccc(C(=O)N[C@@H]2CCCN(c3cnc(C(N)=O)c(Nc4cc(C)ns4)n3)C2)c(F)c1` [Example A-24, 5-[(3R)-3-(2-fluoro-4-methylbenzamido)piperidin-1-yl]-3-[(3-methyl-1,2-thiazol-5-yl)amino]pyrazine-2-carboxamide]: the IC50 in experiment [1] (Table 10, Formula A-I) was ≤ 0.1 µM; in experiment [2] (Table 10, Formula A-I) it was > 10 µM; in experiment [3] (Table 10, Formula A-I) it was > 10 µM.
Take `Cc1cc(Nc2nc(N[C@H]3CC[C@H](NC(=O)c4ccc(N(C)C)cc4)CC3)cnc2C(N)=O)sn1` [Example B-1, 3-[(3-methyl-1,2-thiazol-5-yl)amino]-5-{[(1r,4r)-4-[4-(dimethylamino)benzamido]cyclohexyl]amino}pyrazine-2-carboxamide]: the IC50 in experiment [1] (Table 11, Formula B-I) is ≤ 0.1 µM; in experiment [2] (Table 11, Formula B-I), 0.1 to 1 µM; in experiment [3] (Table 11, Formula B-I), < 0.1 µM.
With `Cc1cc(Nc2nc(N[C@@H]3CCCN(C(=O)N(C)C)C3)cnc2C(N)=O)sn1` [Example C-5, 5-([(3R)-1-(dimethylcarbamoyl)piperidin-3-yl]amino)-3-[(3-methyl-1,2-thiazol-5-yl)amino]pyrazine-2-carboxamide hydrochloride], the IC50 in experiment [1] (Table 12, Formula C-I) lay in the range of 0.1 to 1 µM; in experiment [2] (Table 12, Formula C-I), 0.1 to 1 µM; in experiment [3] (Table 12, Formula C-I) it was 1 to 10 µM.
For `CN(C)c1ccc(C(=O)N[C@@H]2CCCN(c3cnc(C(N)=O)c(Nc4ccc(C5(C)CCN(C6CC6)CC5)cc4)n3)C2)cc1` [Example A-49, 3-{[4-(1-cyclopropyl-4-methylpiperidin-4-yl)phenyl]amino}-5-[(3R)-3-[4-(dimethylamino)benzamido]piperidin-1-yl]pyrazine-2-carboxamide], the IC50 in experiment [1] (Table 10, Formula A-I) was ≤ 0.1 µM; in experiment [2] (Table 10, Formula A-I), 0.1 to 1 µM; in experiment [3] (Table 10, Formula A-I) it was < 0.1 µM.
`NC(=O)c1ncc(N2CCC[C@@H](NC(=O)N3Cc4ccccc4C3)C2)nc1Nc1ccc(C2CCN(C3CCCC3)CC2)cc1` [Example A-5, N-[(3R)-1-(5-carbamoyl-6-{[4-(1-cyclopentylpiperidin-4-yl)phenyl]amino}pyrazin-2-yl)piperidin-3-yl]-2,3-dihydro-1H-isoindole-2-carboxamide hydrochloride]: the IC50 in experiment [1] (Table 10, Formula A-I) is ≤ 0.1 µM; in experiment [2] (Table 10, Formula A-I), 0.1 to 1 µM; in experiment [3] (Table 10, Formula A-I), 0.1 to 1 µM.
Take `Cc1cc(Nc2cc(N3CCC[C@@H](NC(=O)c4ccc(N(C)C)cc4)C3)cnc2C(N)=O)sn1` [Example A-62, 5-[(3R)-3-[4-(dimethylamino)benzamido]piperidin-1-yl]-3-[(3-methyl-1,2-thiazol-5-yl)amino]pyridine-2-carboxamide]: the IC50 was ≤ 0.1 µM in experiment [1] (Table 10, Formula A-I); > 10 µM in experiment [2] (Table 10, Formula A-I); > 10 µM in experiment [3] (Table 10, Formula A-I).

Usually IC50 stands for the concentration that inhibits the measured activity by half.
